Assay results reported in patent publication US7115596B2, “Thiazole compounds as integrin receptor antagonists derivatives” (Pharmacia Corporation, priority 2002, dated 2006).
Counter-ions that a name gives are not always drawn.

Test: Plasma level upon oral dosing (AUC-PO) in rat
Assay type: in vivo
Details: per dose; for Rat AUC/Dose: Table 1; for Rat PK-AUC/dose: second table

Rat AUC/Dose	Rat PK-AUC/dose	SMILES
	1.8 ug-h/m/L/mg/Kg	COc1ccc(C(CC(=O)O)Cc2csc(CCCc3ccc4c(n3)NCCC4)n2)cc1F (stereo not drawn) [Example 2, 3-(3-fluoro-4-methoxyphenyl)-4-{2-[3-(5,6,7,8-tetrahydro-1,8-naphthyridin-2-yl)propyl]-1,3-thiazol-4-yl}butanoic acid hydrochloride]
	2.2 ug-h/m/L/mg/Kg	COc1cc(OC)cc(C(CC(=O)O)Cc2csc(CCCc3ccc4c(n3)NCCC4)n2)c1 (stereo not drawn) [Example 5, 3-(3,5-dimethoxyphenyl)-4-{2-[3-(5,6,7,8-tetrahydro-1,8-naphthyridin-2-yl)propyl]-1,3-thiazol-4-yl}butanoic acid hydrochloride]
	2.5 ug-h/m/L/mg/Kg	Cc1nc2cc(C(CC(=O)O)Cc3csc(CCCc4ccc5c(n4)NCCC5)n3)ccc2s1 (stereo not drawn) [Example 9, 3-(2-methyl-1,3-benzothiazol-5-yl)-4-{2-[3-(5,6,7,8-tetrahydro-1,8-naphthyridin-2-yl)propyl]-1,3-thiazol-4-yl}butanoic acid hydrochloride]
	1.6 ug-h/m/L/mg/Kg	COc1ccc(C(CC(=O)O)Cc2csc(CCCc3ccc4c(n3)NCCC4)n2)cn1 (stereo not drawn) [Example 13, 3-(6-Methoxypyridin-3-yl)-4-{2-[3-(5,6,7,8-tetrahydro-1,8-naphthyridin-2-yl)propyl]-1,3-thiazol-4-yl}butanoic acid hydrochloride]

More lines, now with the values behind:

SMILES	Rat AUC/Dose	Rat PK-AUC/dose
O=C(O)C[C@H](Cc1csc(CCCCNc2cc(N3CCOCC3)ccn2)n1)c1ccc2c(c1)OCO2	0.0634 ug-/m/L/mg/Kg	
O=C(O)CC(Cc1csc(CCCc2ccc3c(n2)NCCC3)n1)c1ccc2c(c1)OCO2 (stereo not drawn) [Example 6, 3-(1,3-benzodioxol-5-yl)-4-{2-[3-(5,6,7,8-tetrahydro-1,8-naphthyridin-2-yl)propyl]-1,3-thiazol-4-yl}butanoic acid hydrochloride]		6.8 ug-h/m/L/mg/Kg
O=C(O)C[C@H](Cc1csc(CCCc2ccc3c(n2)NCCC3)n1)c1ccc2c(c1)OCO2 [Example 7, (3S)-3-(1,3-benzodioxol-5-yl)-4-{2-[3-(5,6,7,8-tetrahydro-1,8-naphthyridin-2-yl)propyl]-1,3-thiazol-4-yl}butanoic acid hydrochloride]		8.7 ug-h/m/L/mg/Kg
O=C(O)CC(Cc1csc(CCCc2ccc3c(n2)NCCC3)n1)c1cnc(C2CC2)s1 (stereo not drawn) [Example 16, 3-(2-Cyclopropyl-1,3-thiazol-5-yl)-4-{2-[3-(5,6,7,8-tetrahydro-1,8-naphthyridin-2-yl)propyl]-1,3-thiazol-4-yl}butanoic acid hydrochloride]		1.7 ug-h/m/L/mg/Kg
O=C(O)CC(Cc1csc(CCCc2ccc3c(n2)NCCC3)n1)c1ccc2c(c1)OCO2 (stereo not drawn) [drawing 98]	6.81 ug-/m/L/mg/Kg	
